Drawing on US8058285B2, “Substituted pyrido [3′, 2′: 4, 5] thieno [3, 2-D] pyrimidines and pyrido [3′, 2′: 4, 5] furo [3, 2-D] pyrimidines used as inhibitors of the PDE-4 and/or the release of TNF-ALPHA” (The Medicines Company (Leipzig) GmbH, priority 2004, dated 2011), this text covers IC50 for 30 compounds.

The term IC50 denotes the concentration that inhibits the measured activity by half.

In experiment [1] the test system is TNFα release. The experiment is described as follows: LPS-induced TNFα release in diluted human blood (ELISA). It is filed as cell-based. As to conditions: LPS 1 μg/ml, human blood diluted 1:5, 24 h; read-out: IC50 value in the TNFα inhibitory assay. The source says:
Isolated leukocytes can be stimulated for the release of cytokines in different ways. Lipopolysaccharides (LPS) are a stimulus for the investigation of the TNFα release. LPS is part of bacterial cell walls and is released when the bacteria are killed (by antibiotics or the natural immune system). LPS stimulates in particular the activity of phagocytizing leukocytes (tissue macrophages, granulocytes, monocytes) and causes the infiltration of leukocytes from the peripheral blood into the affected tissue. A cytokine of special significance for these mechanisms is TNFα which is secreted in large amounts by the affected cells. The main source are here monocytes and macrophages. TNFα initiates and prolongs the inflammatory process in cooperation with other mediators.
For the investigation of the effect on the LPS-induced TNFα release a method was used which was described by Marx, D., Tassabehji, M., Heer, S., Hüttenbrink, K.-B., and I. Szelenyi, Pulmonary Pharmacology & Therapeutics (2002) 15, 7-15. The method is briefly: Human blood was taken from various donors, rendered incoagulable by the addition of 10 mM Na citrate and diluted 1:5 with RPMI 1640 cell culture medium. The test substances were added to the blood samples at various concentrations. 15 min later, the leukocytes were stimulated by the addition of lipopolysaccharides (LPS) from Salmonella abortus equi at a final concentration of 1 μg/ml. After the incubation of the test batches at 37° C. and under 5% CO2 in a water-saturated air for 24 h, the blood was centrifuged and the TNFα concentration in the cell-free supernatant was accurately measured using a purchasable ELISA (BD Biosciences) according to the manufacturer's instructions.

For experiment [2], the target named is T1, PDE-4A (Homo sapiens, UniProt P27815).
T1 construct: PDE-4A catalytic domain comprising amino acids 342-704; made in house; host or cells: Escherichia coli
The experiment is described as follows: PDE-4A inhibitory assay (SPA). The experiment is classed as biochemical. The essentials:
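Human recombinant PDE-4A catalytic domain (aa 342-704), E. coli-expressed. SPA with 1 μM [^3H]-cAMP substrate in 100 mM Tris-HCl pH 7.5, 5 mM MgCl2, 1% DMSO; 20 min at 22° C. Non-specific activity with 100 μM rolipram subtracted.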

Molecules are shown by their SMILES. Where a name gives a salt, the structure may show the parent alone.

T1 sequence (P27815 342-704): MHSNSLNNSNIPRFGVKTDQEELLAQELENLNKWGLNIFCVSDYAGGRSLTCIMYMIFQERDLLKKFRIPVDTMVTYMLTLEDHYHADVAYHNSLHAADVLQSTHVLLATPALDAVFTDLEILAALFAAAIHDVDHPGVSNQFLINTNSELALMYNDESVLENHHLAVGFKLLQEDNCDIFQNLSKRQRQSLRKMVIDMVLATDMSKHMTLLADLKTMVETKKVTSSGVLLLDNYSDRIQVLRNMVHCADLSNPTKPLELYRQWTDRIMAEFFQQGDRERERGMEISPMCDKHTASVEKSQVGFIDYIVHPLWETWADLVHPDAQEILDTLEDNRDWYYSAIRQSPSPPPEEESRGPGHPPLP

Regarding `Cc1cc(-c2ccccc2)nc2sc3c(N4CCNCC4)nc(OCCO)nc3c12` [2-(2-Hydroxy-ethoxy)-9-methyl-7-phenyl-4-(piperazin-1-yl)-pyrido[3′,2′:4,5]thieno[3,2-d]pyrimidine], the concentration for half-maximal inhibition (IC50) in experiment [1] is < 2000 nM; in experiment [2] it was 2 to 50 nM.
On to `CCOc1nc(N2CCNCC2)c2sc3nc(C)c(Cc4ccc([N+](=O)[O-])cc4)c(C)c3c2n1` [2-Ethoxy-7,9-dimethyl-8-(4-nitro-benzyl)-4-(piperazin-1-yl)-pyrido[3′,2′:4,5]thieno[3,2-d]pyrimidine], for which the results for the 50% inhibitory concentration (IC50) in experiment [1] and in experiment [2] were < 2000 nM and 2 to 50 nM, respectively.
The matching figures for `CCOc1nc(N2CCNCC2)c2sc3nc(-c4ccc(OC)c(OC)c4)cc(C)c3c2n1` [2-Ethoxy-7-(3,4-dimethoxy-phenyl)-9-methyl-4-(piperazin-1-yl)-pyrido[3′,2′:4,5]thieno[3,2-d]pyrimidine]: < 2000 nM and 2 to 50 nM.
On the same counts, the results for `CCOc1nc(N2CCNCC2)c2sc3nc(-c4ccc(OC)cc4)cc(C)c3c2n1` [2-Ethoxy-7-(4-methoxy-phenyl)-9-methyl-4-(piperazin-1-yl)-pyrido[3′,2′:4,5]thieno[3,2-d]pyrimidine] are < 2000 nM and 2 to 50 nM.
On the same counts, the results for `CCOc1nc(N2CCNCC2)c2sc3nc(-c4ccc(C(F)(F)F)cc4)cc(C)c3c2n1` [2-Ethoxy-7-(4-trifluoro-methyl-phenyl)-9-methyl-4-(piperazin-1-yl)-pyrido[3′,2′:4,5]thieno[3,2-d]pyrimidine] are < 2000 nM and 2 to 50 nM.
In the case of `CCOc1nc(N2CCNCC2)c2sc3nc(C)cc(-c4ccccc4)c3c2n1` [2-Ethoxy-7-methyl-9-phenyl-4-(piperazin-1-yl)-pyrido[3′,2′:4,5]thieno[3,2-d]pyrimidine-hydrochloride], the half-maximal inhibitory concentration (IC50) in experiment [1] was < 2000 nM.
As for `CCOc1nc(N2CCNCC2)nc2c1sc1nc(-c3ccc(C(N)=O)cc3)cc(C(F)(F)F)c12` [4-(4-Ethoxy-9-trifluoromethyl-2-piperazin-1-yl-pyrido[3′,2′:4,5]thieno[3,2-d]pyrimidin-7-yl)-benzamide trifluoroacetate], in experiment [1], the IC50 was < 2000 nM.
Turning to `CCOc1nc(N2CCNCC2)nc2c1sc1nc(-c3ccncc3)cc(C(F)(F)F)c12` [4-Ethoxy-2-(piperazin-1-yl)-7-(4-pyridyl)-9-trifluoromethyl-pyrido[3′,2′:4,5]thieno[3,2-d]pyrimidine], the half-inhibitory concentration (IC50) in experiment [1] is < 2000 nM; in experiment [2], 2 to 50 nM.
The matching figures for `CCOc1nc(N2CCNCC2)nc2c1sc1nc(-c3cccnc3)cc(C(F)(F)F)c12` [4-Ethoxy-2-piperazin-1-yl-7-(3-pyridyl)-9-trifluoromethyl-pyrido[3′,2′:4,5]thieno[3,2-d]pyrimidine]: < 2000 nM and 2 to 50 nM.
The matching figures for `CCOc1nc(N2CCNCC2)nc2c1sc1nc(C)c(Cc3ccc([N+](=O)[O-])cc3)c(C)c12` [4-Ethoxy-7,9-dimethyl-8-(4-nitro-benzyl)-2-(piperazin-1-yl)-pyrido[3′,2′:4,5]thieno[3,2-d]pyrimidine]: < 2000 nM and 2 to 50 nM.
For the compound `CCOc1nc(N2CCNCC2)nc2c1sc1nc(-c3ccccc3)cc(-c3ccccc3)c12` [4-Ethoxy-7,9-diphenyl-2-(piperazin-1-yl)-pyrido[3′,2′:4,5]thieno[3,2-d]pyrimidine], the half-inhibitory concentration (IC50) in experiment [1] was < 2000 nM; in experiment [2], 2 to 50 nM.
In the case of `CCOc1nc(N2CCNCC2)nc2c1sc1nc(-c3ccc[n+]([O-])c3)cc(C(F)(F)F)c12` [4-Ethoxy-7-(1-oxy-pyridin-3-yl)-2-(piperazin-1-yl)-9-trifluoromethyl-pyrido[3′,2′:4,5]thieno[3,2-d]pyrimidine], the IC50 was < 2000 nM in experiment [1] and 2 to 50 nM in experiment [2].
The matching figures for `CCOc1nc(N2CCNCC2)nc2c1sc1nc(-c3cc[n+]([O-])cc3)cc(C(F)(F)F)c12` [4-Ethoxy-7-(1-oxy-pyridin-4-yl)-2-(piperazin-1-yl)-9-trifluoromethyl-pyrido[3′,2′:4,5]thieno[3,2-d]pyrimidine]: < 2000 nM and 2 to 50 nM.
On the same counts, the results for `CCOc1nc(N2CCNCC2)nc2c1sc1nc(-c3ccc(-n4ccnc4)cc3)cc(C(F)(F)F)c12` [4-Ethoxy-7-(4-(1H-imidazol-1-yl)phenyl)-2-(piperazin-1-yl)-9-trifluoromethyl-pyrido[3′,2′:4,5]thieno[3,2-d]pyrimidine] are < 2000 nM and < 2 nM.
The matching figures for `CCOc1nc(N2CCNCC2)nc2c1sc1nc(-c3ccc(-c4ccoc4)cc3)nc(C)c12` [4-Ethoxy-7-(4-[3-furyl]-phenyl)-9-methyl-2-piperazin-1-yl-thieno[2,3-d:4,5-d′]dipyrimidine]: < 2000 nM and < 2 nM.
For `CCOc1nc(N2CCNCC2)nc2c1sc1nc(-c3ccc(-c4ccc(N)cc4)cc3)nc(C)c12` [7-(4′-Aminobiphen-4-yl)-4-ethoxy-9-methyl-2-piperazin-1-yl-thieno[2,3-d:4,5-d′]dipyrimidine], in experiment [2], the half-maximal inhibitory concentration (IC50) was < 2 nM.
On the same count and under the same terms, the same measure for `CCOc1nc(N2CCNCC2)nc2c1sc1nc(Cc3ccccc3)nc(C)c12` [7-Benzyl-4-ethoxy-9-methyl-2-piperazin-1-yl-thieno[2,3-d:4,5-d′]dipyrimidine]: 2 to 50 nM.
Same read-out and setting: in the case of `CCOc1nc(N2CCNCC2)nc2c1sc1nc(N3CCOCC3)c3c(c12)CCC3` [7-Ethoxy-2,3-dihydro-4-morpholino-9-piperazin-1yl-1H-cyclopenta[4′,5′]pyrido[3′,2′:4,5]thieno[3,2-d]pyrimidine] it was 2 to 50 nM.
Same read-out and setting: the same measure for `CCOc1nc(N2CCNCC2)nc2c1sc1nc(N3CCOCC3)c3c(c12)CCN(C)C3` [8-Ethoxy-3-methyl-5-morpholino-10-piperazin-1-yl-pyrimido[4′,5′:4,5]thieno[2,7]-1,2,3,4-tetrahydro-naphthyridine]: 2 to 50 nM.
The compound `CCOc1nc(N2CCNCC2)nc2c1sc1nc(N3CCN(C)CC3)c3c(c12)CCCC3` [8-Ethoxy-5-(N-methyl-piperazin-1-yl)-10-piperazin-1-yl-pyrimido[4′,5′:4,5]thieno[2,3-c]-1,2,3,4-tetrahydro-isoquinoline] displayed an IC50 in experiment [2] of 2 to 50 nM.
The same measure, in the same setting: in the case of `CCOc1nc(N2CCNCC2)nc2c1sc1nc(-c3ccccc3)c3c(c12)CCCC3` [8-Ethoxy-5-phenyl-10-piperazin-1-yl-pyrimido[4′,5′:4,5]thieno[2,3-c]-1,2,3,4-tetrahydro-isoquinoline-hydrochloride] it was 2 to 50 nM.
On the same count and under the same terms, in the case of `CCOc1nc(N2CCNCC2)nc2c1sc1nc(N3CCCCC3)c3c(c12)CCCC3` [8-Ethoxy-5-piperidino-10-piperazin-1-yl-pyrimido[4′,5′:4,5]thieno[2,3-c]-1,2,3,4-tetrahydro-isoquinoline-hydrochloride] it was 2 to 50 nM.
Same read-out and setting: the same measure for `CCOc1nc(N2CCNCC2)nc2c1sc1nc(-c3ccc(Cl)cc3)cc(C(F)F)c12` [9-Difluoromethyl-7-(4-chloro-phenyl)-4-ethoxy-2-piperazin-1-yl-pyrido[3′,2′:4,5]thieno[3,2-d]pyrimidine]: 2 to 50 nM; for `CCOc1nc(N2CCNCC2)nc2c1sc1nc(N3CCOCC3)c3c(c12)CCCCC3` [9-Ethoxy-6-morpholino-11-(piperazin-1-yl)-2,3,4,5-tetrahydro-1H-cyclohepta[4′,5′]pyrido[3′,2′:4,5]thieno[3,2-d]pyrimidine]: 2 to 50 nM.
Consider `Cc1cc(-c2ccccc2)nc2sc3c(OC(C)C)nc(N4CCNCC4)nc3c12` [9-Methyl-7-phenyl-2-(piperazin-1-yl)-4-iso-propoxy-pyrido[3′,2′:4,5]thieno[3,2-d]pyrimidine], for which the half-maximal inhibitory concentration (IC50) in experiment [2] is 2 to 50 nM.
On the same count and under the same terms, in the case of `Cc1cc(-c2ccccc2)nc2sc3c(N4CCNCC4)nc(OC(C)C)nc3c12` [9-Methyl-7-phenyl-4-(piperazin-1-yl)-2-iso-propoxy-pyrido[3′,2′:4,5]thieno[3,2-d]pyrimidine] it was 2 to 50 nM; in that of `CCCc1nc(N2CCNCC2)c2sc3nc(-c4ccccc4)cc(C)c3c2n1` [9-Methyl-7-phenyl-4-(piperazin-1-yl)-2-n-propyl-pyrido[3′,2′:4,5]thieno[3,2-d]pyrimidine], 2 to 50 nM.
On the same count and under the same terms, in the case of `CCCOc1nc(N2CCNCC2)c2sc3nc(-c4ccccc4)cc(C)c3c2n1` [9-Methyl-7-phenyl-4-piperazin-1-yl-2-n-propoxy-pyrido[3′,2′:4,5]thieno[3,2-d]pyrimidine] it was 2 to 50 nM; in that of `CCOc1nc(N2CCNCC2)nc2c1sc1nc(-c3ccc(C)cc3)cc(CC(C)C)c12` [9-iso-Butyl-4-ethoxy-7-(4-methyl-phenyl)-2-(piperazin-1-yl)-pyrido[3′,2′:4,5]thieno-[3,2-d]pyrimidine], 2 to 50 nM.
Still for that read-out and setting: the same measure for `CCOc1nc(N2CCNCC2)c2sc3nc(-c4ccccc4)c4c(c3c2n1)CCCC4` [10-Ethoxy-5-phenyl-8-piperazin-1-yl-pyrimido[4′,5′:4,5]thieno[2,3-c]-1,2,3,4-tetrahydro-isoquinoline]: 2 to 50 nM.
